# From patent US20100004459A1, “2-PHENYLNICOTINIC ACID DERIVATIVE” (NIPPON ZOKI PHARMACEUTICAL CO., LTD., priority 2006, published 2010)
# pIC50: −log10 of the molar value.
# Legend:
# [1] = test system: model rats of fructose-loaded hypertriglyceridemia; test: Model rats of fructose-loaded hypertriglyceridemia: action for lowering of triglyceride in serum; format: in vivo; conditions: Rattus norvegicus, po; male SD rats, 75% fructose solution for three days; 100 mg/kg orally once daily; serum 2 hours after final administration; read-out: Inhibition Rate (%) Action for lowering of triglyceride
# Protocol: (§1) The test was conducted according to a method of Kusama, et al. (Folia Pharmacologica Japonica, volume 92, pages 175 to 180, 1988). Thus, male rats of SD strain of 6 to 7 weeks age were made in free access to a 75% (w/v) D(−)-fructose solution for three days. During the period of fructose ingestion, a test substance (100 mg/kg) was suspended in 1% methyl cellulose and orally administered once daily. After 2 hours from the final administration, about 500 μL per rat of blood was collected using a hematocrit capillary from orbital venous plexus under anesthetization with ether and centrifuged (3000 rpm at 4° C. for 20 minutes) whereupon the serum was prepared.
# (1) Action for Lowering of Triglyceride in Serum
# The triglyceride (TG) in the serum was measured by a Triglyceride E-Test Wako (manufactured by Wako Pure Chemical Industries, Ltd.) and each TG lowering rate was determined by the following formula.
# TG Lowering Rate(%)={[(TG Value of Control Animal)−(TG Value of Animal Administered with Test Substance)]/[(TG Value of Control Animal)-(TG Value of Untreated Animal)]}×100
# [2] = test system: model rats of fructose-loaded hypertriglyceridemia; test: Model rats of fructose-loaded hypertriglyceridemia: action for lowering of uric acid in serum; format: in vivo; conditions: Rattus norvegicus, po; male SD rats, 75% fructose solution for three days; 100 mg/kg orally once daily; serum 2 hours after final administration; read-out: Inhibition Rate (%) Action for lowering of uric acid
# Protocol: as §1
# (2) Action for Lowering of Uric Acid in Serum
# Uric acid value in the serum was measured by a Uric acid C-Test Wako (manufactured by Wako Pure Chemical Industries, Ltd.) using the above serum and each uric acid lowering rate was determined by the following formula.
# Uric Acid Lowering Rate(%)={[(Uric Acid Value of Control Animal)-(Uric Acid Value of Animals Administered with Test Substance)]/[Uric Acid Value of Control Animal]}×100
# xanthine oxidase = target: T1, xanthine oxidase (Bos taurus, UniProt P80457); test: Test for xanthine oxidase inhibitory activity; format: biochemical; conditions: xanthine oxidase derived from milk (Sigma); substrate xanthine; uric acid production at OD 292 nm, 37° C.
# T1 construct: derived from milk; manufactured by Sigma; purchased Sigma; host or cells: milk (natural source)
# Protocol: Evaluation of inhibitory activity of the present invention to xanthine oxidase was conducted using xanthine as a substrate by measuring the amount of uric acid produced by xanthine oxidase which is an oxidizing enzyme therefor. Thus, xanthine oxidase (0.01 unit/L, 20 μL/well; derived from milk; manufactured by Sigma), diethylenetriamine pentaacetate (0.01 mol/L, 20 μL/well), phosphate buffer (20 μL/well), distilled water (100 μL/well) and a diluted solution (20 μL/well) of a test substance were mixed in a 96-well quartz microplate. After preincubating for 5 minutes in a microplate spectrophotometer warmed at 37° C., xanthine (1 mmol/L, 20 μL/well) was added. The changes with elapse of time in OD 292 nm based on the production of uric acid was measured using a microplate spectrophotometer warmed at 37° C. whereby the initial reaction velocity was measured. Xanthine oxidase inhibitory activity was calculated by the following formula and concentration of the test substance for 50% suppression (IC50 value) was calculated.
# Inhibition Rate(%)={[(Initial Reaction Velocity of the Reaction Control)-(Initial Reaction Velocity upon Addition of Test Substance)]/[Initial Reaction Velocity of the Reaction Control]}×100
# T1 sequence (P80457 whole entry): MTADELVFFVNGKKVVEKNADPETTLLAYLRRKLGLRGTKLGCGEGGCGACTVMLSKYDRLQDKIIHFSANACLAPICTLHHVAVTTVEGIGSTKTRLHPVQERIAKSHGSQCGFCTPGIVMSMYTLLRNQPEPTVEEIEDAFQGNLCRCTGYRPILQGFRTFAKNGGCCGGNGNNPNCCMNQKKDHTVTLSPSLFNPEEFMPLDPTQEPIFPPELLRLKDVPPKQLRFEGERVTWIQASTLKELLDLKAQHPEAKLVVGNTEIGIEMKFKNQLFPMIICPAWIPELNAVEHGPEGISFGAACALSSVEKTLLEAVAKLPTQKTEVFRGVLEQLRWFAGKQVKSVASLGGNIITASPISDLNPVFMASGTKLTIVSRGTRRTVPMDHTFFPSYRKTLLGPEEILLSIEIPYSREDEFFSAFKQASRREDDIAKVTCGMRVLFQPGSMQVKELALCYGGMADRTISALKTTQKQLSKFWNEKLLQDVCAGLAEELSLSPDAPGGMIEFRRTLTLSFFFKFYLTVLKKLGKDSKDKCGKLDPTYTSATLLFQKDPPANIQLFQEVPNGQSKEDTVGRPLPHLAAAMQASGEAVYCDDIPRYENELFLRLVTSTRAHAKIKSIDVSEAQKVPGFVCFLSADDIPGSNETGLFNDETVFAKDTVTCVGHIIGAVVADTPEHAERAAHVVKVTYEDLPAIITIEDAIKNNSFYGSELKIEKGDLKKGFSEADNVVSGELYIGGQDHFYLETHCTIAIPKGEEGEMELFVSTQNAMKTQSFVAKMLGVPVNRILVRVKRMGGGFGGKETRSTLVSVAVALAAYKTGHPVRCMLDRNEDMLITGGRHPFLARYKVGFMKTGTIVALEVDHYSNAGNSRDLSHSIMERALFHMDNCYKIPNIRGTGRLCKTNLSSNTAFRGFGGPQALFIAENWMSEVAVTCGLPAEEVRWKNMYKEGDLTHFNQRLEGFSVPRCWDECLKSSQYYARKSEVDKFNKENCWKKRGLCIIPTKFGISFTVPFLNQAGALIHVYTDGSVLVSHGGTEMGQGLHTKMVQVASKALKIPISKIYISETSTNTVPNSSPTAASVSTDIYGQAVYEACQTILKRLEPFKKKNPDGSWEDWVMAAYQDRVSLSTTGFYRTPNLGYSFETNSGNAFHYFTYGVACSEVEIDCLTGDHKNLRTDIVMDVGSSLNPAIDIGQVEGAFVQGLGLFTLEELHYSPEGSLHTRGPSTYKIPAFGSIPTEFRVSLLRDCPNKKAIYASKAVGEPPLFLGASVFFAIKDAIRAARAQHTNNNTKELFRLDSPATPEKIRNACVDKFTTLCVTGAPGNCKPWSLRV
Structure (SMILES),inhibition in vivo at 100 mg/kg [1],inhibition in vivo at 100 mg/kg [2],melting point,pIC50 (xanthine oxidase)
"CC(C)(COc1ccc(-c2ncccc2C(=O)O)cc1C#N)c1ccccc1 [Example 78, 2-[3-Cyano-4-(2-methyl-2-phenylpropoxy)phenyl]nicotinic acid]",21.6%,19.4%,221 to 222 °C,–
N#Cc1cc(-c2ncccc2C(=O)O)ccc1OCCc1ccccc1C(F)(F)F [Example 56],72.1%,38.7%,187 to 188 °C,7.44
"N#Cc1cc(-c2ncccc2C(=O)O)ccc1OCCCCc1ccccc1 [Example 62, 2-[3-Cyano-4-(4-phenylbutoxy)phenyl]nicotinic acid]",71.1%,43.6%,163 to 164 °C,7.57
"CC1(COc2ccc(-c3ncccc3C(=O)O)cc2C#N)CCCCC1 [Example 77, 2-[3-Cyano-4-(1-methylcyclohexylmethoxy)phenyl]nicotinic acid]",39.6%,27.8%,100 to 101 °C,7.62
"N#Cc1cc(-c2ncccc2C(=O)O)ccc1OCC1CCCCC1 [Example 47, 2-(3-Cyano-4-cyclohexylmethoxyphenyl)nicotinic acid]",46.3%,52.6%,220 to 221 °C,7.62
"N#Cc1cc(-c2ncccc2C(=O)O)ccc1OCC1CCCC1 [Example 75, 2-(3-Cyano-4-cyclopentylmethoxyphenyl)nicotinic acid]",25.7%,49.5%,227 to 228 °C,7.62
"N#Cc1cc(-c2ncccc2C(=O)O)ccc1OCCCc1ccc(C(F)(F)F)cc1 [Example 59, 2-{3-Cyano-4-[3-(4-trifluoromethylphenyl)propoxy]phenyl}nicotinate]",53.2%,29.3%,183 to 184 °C,7.38
"CC(C)(C)COc1ccc(-c2ncccc2C(=O)O)cc1C#N [Example 83, 2-[3-Cyano-4-(2,2-dimethylpropoxy)phenyl]nicotinic acid]",112%,56.6%,231 to 232 °C,7.38
"CCC(C)(C)COc1ccc(-c2ncccc2C(=O)O)cc1C#N [Example 72, 2-[3-Cyano-4-(2,2-dimethylbutoxy)phenyl]nicotinic acid]",34.2%,48.5%,166 to 167 °C,7.55
"CC(C)(C)CCOc1ccc(-c2ncccc2C(=O)O)cc1C#N [Example 84, 2-[3-Cyano-4-(3,3-dimethylbutoxy)phenyl]nicotinic acid]",41.4%,69.2%,206 to 207 °C,7.74
"N#Cc1cc(-c2ncccc2C(=O)O)ccc1OCCc1ccccc1Cl [Example 100, 2-{4-[2-(2-Chlorophenyl)ethoxy]-3-cyanophenyl}nicotinic acid]",40.8%,58.2%,–,7.19
